These results are taken from ChEMBL document CHEMBL3627596, “Discovery of Novel Inhibitor Scaffolds against the Metallo-β-lactamase VIM-2 by Surface Plasmon Resonance (SPR) Based Fragment Screening” (J Med Chem, 2015).

The target of experiment [1] is T1, Beta-lactamase VIM-2 (Pseudomonas aeruginosa, UniProt Q9K2N0). Description: Inhibition of Pseudomonas aeruginosa 301-5473 metallo-beta-lactamase VIM-2 expressed in Escherichia coli BL21(DE3) using nitrocefin as substrate preincubated for 5 mins followed by substrate addition measured every 17 secs for 20 mins by microplate reader analysis.
Experiment [2] has as its target T1, Beta-lactamase VIM-2. Description: Reversible binding affinity to Pseudomonas aeruginosa 301-5473 metallo-beta-lactamase VIM-2 expressed in Escherichia coli BL21(DE3) measured for 15 secs by SPR analysis.
The target of experiment [3] is Beta-lactamase VIM-2 (Pseudomonas aeruginosa) (UniProt Q9K2N0). The experiment can be described thus: Inhibition of Pseudomonas aeruginosa 301-5473 metallo-beta-lactamase VIM-2 expressed in Escherichia coli BL21(DE3) using nitrocefin as substrate at 500 uM preincubated for 5 mins followed by substrate addition measured every 17 secs for 20 mins by microplate reader analysis relative to control.

For experiment [4], the target named is T1, Beta-lactamase VIM-2. The experiment can be described thus: Binding affinity to Pseudomonas aeruginosa 301-5473 metallo-beta-lactamase VIM-2 expressed in Escherichia coli BL21(DE3) measured for 15 secs by SPR analysis.
Experiment [5] addresses T1, Beta-lactamase VIM-2. The experiment can be described thus: Dissociation rate constant to Pseudomonas aeruginosa 301-5473 metallo-beta-lactamase VIM-2 expressed in Escherichia coli BL21(DE3) by SPR analysis.
The target of experiment [6] is Beta-lactamase VIM-2 (Pseudomonas aeruginosa) (UniProt Q9K2N0). Conditions: 301-5473.
Description: Reversible binding affinity to Pseudomonas aeruginosa 301-5473 metallo-beta-lactamase VIM-2 expressed in Escherichia coli BL21(DE3) assessed as association constant measured for 30 secs by SPR analysis

Bounds are passed on as bounds.

Compound `O=C(O)c1ccccc1C(=O)c1ccccc1` [2-BENZOYLBENZOIC ACID] showed a half-inhibitory concentration (IC50) against Beta-lactamase VIM-2 [1] of 8 µM.
The same measure, in the same setting: the result for `O=C(O)c1ccccc1C(=O)c1ccc(Cl)cc1` reads 12 µM.
With `C[C@@H](O)[C@H]1C(=O)N2C(C(=O)O)=C(S[C@@H]3CN[C@H](C(=O)N(C)C)C3)[C@H](C)[C@H]12` [MEROPENEM], at Beta-lactamase VIM-2 [2], the Kd came to 12 µM. In other words, the double-digit micromolar range.
As for `CC(=O)c1ccccc1C(=O)O`, at Beta-lactamase VIM-2 [1], the IC50 was over 1000 µM.
On Beta-lactamase VIM-2 [1], `O=C(O)CCCc1c[nH]c2ccccc12` displayed an IC50 of 757 µM. In experiment [3], this compound yielded an inhibition of over 15%. On Beta-lactamase VIM-2 [4], the affinity, expressed as Kd, was 274 µM.
Take `O=C(O)c1cncc(C#Cc2ccccc2)c1`: on Beta-lactamase VIM-2 [1], it took 298 µM to reach half-maximal inhibition (IC50). For the same compound, the inhibition in experiment [3] is over 15%. For the same compound, binding at Beta-lactamase VIM-2 [4] was put at a Kd of 446 µM.
The corresponding values for `N#Cc1coc2ccccc2c1=O` are 1430 µM, over 15% and 999 µM.
At Beta-lactamase VIM-2 [1], `O=C(O)c1ccccc1C(=O)c1ccc(F)cc1` came in with a concentration for half-maximal inhibition (IC50) of 14 µM. The same compound had an inhibition in experiment [3] of over 15%. Further, the affinity on Beta-lactamase VIM-2 [4], expressed as Kd, was 9 µM.
The corresponding values for `CCCc1ccc(C(=O)CCC(=O)O)cc1` are 287 µM, over 15% and 173 µM.
On Beta-lactamase VIM-2 [1], `C[C@H](CS)C(=O)N1CCC[C@H]1C(=O)O` [CAPTOPRIL] came in with an IC50 of 3.5 µM. Besides, at Beta-lactamase VIM-2 [2], the Kd amounted to 0.6 µM. In addition, the koff at Beta-lactamase VIM-2 [5] is 0.025 s⁻¹. The compound further registered a Ka in experiment [6] of 4.2 ×10⁴ /M/s.
Turning to `COC(=O)c1ccccc1C(=O)c1ccccc1`, the IC50 at Beta-lactamase VIM-2 [1] is over 3000 µM.
On the same count and under the same terms, with `O=C(O)c1ccccc1Cc1ccccc1` the figure was over 1000 µM.
Compound `Cn1c(S)nnc1C(F)(F)F` came in with a half-inhibitory concentration (IC50) against Beta-lactamase VIM-2 [1] of 232 µM. This compound also registered an inhibition in experiment [3] of over 15%. At Beta-lactamase VIM-2 [4], the dissociation constant (Kd) was found to be 145 µM.
The matching figures for `O=C(O)CSc1ccnc2cc(Cl)ccc12`: 205 µM, over 15% and 264 µM.
The corresponding values for `N#Cc1c(C(F)(F)F)cc(-c2cccs2)nc1O` are 314 µM, over 15% and 229 µM.

The IC50 is the concentration that inhibits the measured activity by half. Read a high IC50 as weaker potency. For orientation: Kd means the equilibrium constant for the complex coming apart. In general, inhibition refers to the share of the control response that was lost under treatment. Lower therefore signals a weak effect. The term koff denotes the rate constant with which the complex falls apart.
